Assay [1] deals with CCRF-CEM. Put plainly: Antiviral activity was evaluated against HIV-infected CEM cells. The assay is classed as functional, cell-based. The following applies: Homo sapiens.
Assay [2] deals with T1, Human immunodeficiency virus type 1 protease (Human immunodeficiency virus 1, UniProt Q72874). As to the kind of experiment: Inhibitory concentration against human immunodeficiency virus type 1(HIV-1) protease at pH 4.7.
For assay [3], the target named is T1, Human immunodeficiency virus type 1 protease. Put plainly: Inhibitory activity was evaluated against human immunodeficiency virus type 1(HIV-1) protease at pH 6.2.
For assay [4] the target is unchanged. As to the kind of experiment: Inhibitory activity was evaluated against human immunodeficiency virus type 1(HIV-1) protease at pH 4.7.

As a reminder, the EC50 is the midpoint of the concentration-response curve. The low end stands for a more potent agent, the high end for a less potent agent. As a reminder, the IC50 is the midpoint of a concentration-inhibition curve. Read a low IC50 as inhibition by little substance. For `O=C1CC(CCc2ccccc2)(c2ccccc2)OC(O)=C1Sc1cc2ccccc2s1` (configuration not stated), the EC50 in assay [1] was over 100000 nM. The same compound registered a concentration for half-maximal inhibition (IC50) in assay [2] of 363 nM.
In assay [1], `Cc1c(SC2=C(O)OC(CCc3ccccc3)(c3ccccc3)CC2=O)sc2ccccc12` (configuration not stated) gave an EC50 of over 100000 nM. In addition, the IC50 in assay [2] stood at 74 nM.
The compound `Cc1cc(SC2=C(O)O[C@](CCc3ccc(O)cc3)(C(C)C)CC2=O)c(C(C)(C)C)cc1CO` came in with an EC50 in assay [1] of 500 nM. In addition, the IC50 in assay [3] stood at 1 nM.
In assay [1], `CC(C)(C)c1c(SC2=C(O)OC(CCc3ccccc3)(c3ccccc3)CC2=O)oc2ccccc12` (configuration not stated) had an EC50 of 31000 nM. Further, the values for the IC50 in assay [3] and in assay [2] were 210 nM and 11 nM, respectively.
As for `CC(C)(C)c1oc2ccccc2c1SC1=C(O)OC(CCc2ccccc2)(c2ccccc2)CC1=O` (configuration not stated), the EC50 in assay [1] came to 10000 nM. Further, the IC50 worked out at 211 nM in assay [3] and 18 nM in assay [2].
Taken in the same sequence, the figures for `CC(C)(C)c1c(SC2=C(O)OC(CCc3ccccc3)(c3ccccc3)CC2=O)sc2ccccc12` (configuration not stated) were over 66000 nM, 17 nM and 7 nM.
On to `CC(C)(C)c1cc2c(cc1SC1=C(O)OC(CCc3ccccc3)(c3ccccc3)CC1=O)CCCC2` (configuration not stated), for which the EC50 in assay [1] was found to be 33000 nM. This compound also registered an IC50 in assay [2] of 28 nM.
The matching figures for `CC(C)(C)n1c(SC2=C(O)OC(CCc3ccccc3)(c3ccccc3)CC2=O)nc2ccccc21` (configuration not stated): 61000 nM and 505 nM.
The matching figures for `O=C1CC(CCc2ccccc2)(c2ccccc2)OC(O)=C1Sc1cccs1` (configuration not stated): over 73000 nM and 290 nM.
The matching figures for `CCc1c(SC2=C(O)OC(CCc3ccccc3)(c3ccccc3)CC2=O)sc2ccccc12` (configuration not stated): over 65000 nM and 28 nM.
Regarding `CC(C)(C)c1cc2c(cc1SC1=C(O)OC(CCc3ccccc3)(c3ccccc3)CC1=O)CCC2` (configuration not stated), the midpoint of the response in assay [1], the EC50, lay at 22000 nM. Further, the IC50 was 130 nM in assay [3] and 9 nM in assay [2].
For orientation: Ki means a dissociation constant, usually derived from enzyme kinetics or from competition with a known ligand. On to `CC(C)[C@]1(CCc2ccc(O)cc2)CC(=O)C(Sc2sc3ccccc3c2C(C)(C)C)=C(O)O1`, for which the EC50 in assay [1] came to 1000 nM. In addition, in assay [4], the Ki is under 0.1 nM. In assay [3], this compound displayed a 50% inhibitory concentration (IC50) of under 1 nM.
As for `Cc1ccsc1SC1=C(O)OC(CCc2ccccc2)(c2ccccc2)CC1=O` (configuration not stated), in assay [1], the EC50 was over 100000 nM. This compound yielded an IC50 in assay [2] of 195 nM.
Turning to `Cc1ccc(C(C)(C)C)c(SC2=C(O)OC(CCc3ccccc3)(c3ccccc3)CC2=O)c1` (configuration not stated), a half-maximal effect in assay [1] (EC50) was put at 46000 nM.

Values taken from ChEMBL document CHEMBL1131797, “4-hydroxy-5,6-dihydro-2H-pyran-2-ones.3. Bicyclic and hetero-aromatic ring systems as 3-position scaffolds to bind to S1' and S2' of the HIV-1 protease enzyme” (Bioorg Med Chem Lett, 1999).
